# Columns and labels:
# Assay type in all cases: in vivo, chicken chicks
# Eimeria acervulina = assay: Cage experiments coccidiosis/chicks, Eimeria acervulina part of the mixed infection; settings: for Efficacy against Eimeria acervulina (grade): first symbol of cell; on Efficacy against Eimeria acervulina (grade): key: 2 = complete action; 1 = weak action; 0 = inactive; D = death
# Protocol: (§1) The efficacy of the compounds according to the invention can be confirmed, for example, in cage experiments using the following experimental arrangement, in which the animals are treated with the respective individual components and with the mixtures of the individual components.
# (§2) An active compound-containing feed is prepared in such a way that the required amount of active compound is thoroughly mixed with a nutritionally balanced animal feed, e.g. with the chick feed indicated below.
# (§3) 8 to 12 day-old male chicken chicks raised under coccidea-free conditions (e.g. LSL Brinkschulte/Senden) receive the compounds according to the invention (test substances) from 3 days before (day -3) the infection (=a.i.) until 8 (9) days after the infection (=p.i.) with the feed in the concentration indicated in ppm. Three animals are kept in each cage. Per dose, one to a number of groups of this type are employed. Infection is carried out by means of a stomach tube directly into the crop using approximately 100,000 sporulated oocysts of Eimeria acervulina and with in each case approximately 30,000 oocysts of E. maxima and 40,000 sporulated oocysts of E. tenella. These are highly virulent strains. The exact infectious dose is adjusted such that if possible one of three experimentally infected untreated chicks dies due to infection. For the assessment of the efficacy, the following criteria are taken into consideration: weight increase from the start of the experiment to the end of the experiment, death rate due to infection, macroscopic assessment of the faeces with respect to diarrhoea and excretion of blood on days 5 and 7 p.i. (grade 0 to 6), macroscopic grade of the intestinal mucous membrane, in particular of the cecums (grade 0 to 6) and the oocyst excretion and also the proportion (in %) of the oocysts sporulating within 24 hours. The number of oocysts in the faeces was determined with the aid of the McMaster counting chamber (see Engelbrecht and coworkers “Parasitologische Arbeitsmethoden in Medizin und Veterinärmedizin, [Parasitological working methods in medicine and veterinary medicine] Akademie-Verlag, Berlin (1965)). The individual findings are related to the untreated noninfected control groups and an overall grade is calculated (cf. A. Haberkorn (1986), pp. 263 to 270 in Research in Avian Coccidiosis ed L. R. McDougald, L. P. Joyner, P. L. Long Proceedings of the Georgia Coccidiosis Conference Nov, 18-20, 1985 Athens/Ga. USA).
# (§4) In the columns “dropping scores”, “lesion score” and “oocyst control”, individual details of the action are given.
# Eimeria maxima = assay: Cage experiments coccidiosis/chicks, Eimeria maxima part of the mixed infection; settings: for Efficacy against Eimeria maxima (grade): second symbol of cell; on Efficacy against Eimeria maxima (grade): key: 2 = complete action; 1 = weak action; 0 = inactive; D = death
# Protocol: as §1, §2, §3, §4
# [1] = test system: Eimeria acervulina, Eimeria maxima and Eimeria tenella; assay: Cage experiments coccidiosis/chicks, mixed experimental infection
# Protocol: as §1, §2, §3
# In the column “ppm”, the concentration of the active compound employed in the feed is indicated in ppm.
# In the column “mortality”, the percentage of the animals which have died is indicated under % and the number of the animals which have died/animals employed in the experiment is indicated under n.
# In the column “weight % of not inf. control”, the ratio of the weight of the treated animals to the weight of the noninfected control group is indicated.
# as §4
# In the column “% efficacy”, the overall rating is assessed; 0% means no action, 100% means complete action.
# Eimeria tenella = assay: Cage experiments coccidiosis/chicks, Eimeria tenella part of the mixed infection; settings: for Efficacy against Eimeria tenella (grade): third symbol of cell; on Efficacy against Eimeria tenella (grade): key: 2 = complete action; 1 = weak action; 0 = inactive; D = death
# Protocol: as §1, §2, §3, §4
# [2] = 0 ppm in feed (so in the source)
# [3] = 0 ppm in feed (so in the source), grade 0 to 6
# [4] = 2.5 ppm in feed, listed as Ex. 13
# [5] = 5 ppm in feed, listed as Ex. 13
# [6] = 10 ppm in feed, listed as Ex. 13
smiles,measurement,setting,value
Cc1oc(=O)oc1Cn1c(C(F)(F)F)nc2c(Cl)cc(C(F)(F)F)cc21 [Example 11],oocyst in % of inf. control ac.,Eimeria acervulina; [2],38%
same,oocyst in % of inf. control ac.,Eimeria acervulina; 5 ppm,19 % of inf. control
same,oocyst in % of inf. control ac.,Eimeria acervulina; 5 ppm in feed,>100%
same,oocyst in % of inf. control ac.,Eimeria acervulina; 7.5 ppm,22 % of inf. control
same,oocyst in % of inf. control ac.,Eimeria acervulina; 10 ppm,91 % of inf. control
same,oocyst in % of inf. control ac.,Eimeria acervulina; 25 ppm in feed,0%
same,Efficacy against Eimeria acervulina (grade),Eimeria acervulina; Dose 5 ppm,0
same,Efficacy against Eimeria acervulina (grade),Eimeria acervulina; Dose 10 ppm,1
same,Efficacy against Eimeria acervulina (grade),Eimeria acervulina; Dose 25 ppm,2
same,oocyst in % of inf. control max.,Eimeria maxima; [2],0%
same,oocyst in % of inf. control max.,Eimeria maxima; 5 ppm,>100 % of inf. control
same,oocyst in % of inf. control max.,Eimeria maxima; 5 ppm in feed,0%
same,oocyst in % of inf. control max.,Eimeria maxima; 7.5 ppm,>100 % of inf. control
same,oocyst in % of inf. control max.,Eimeria maxima; 10 ppm,0 % of inf. control
same,oocyst in % of inf. control max.,Eimeria maxima; 25 ppm in feed,0%
same,Efficacy against Eimeria maxima (grade),Eimeria maxima; Dose 5 ppm,0
same,Efficacy against Eimeria maxima (grade),Eimeria maxima; Dose 10 ppm,1
same,Efficacy against Eimeria maxima (grade),Eimeria maxima; Dose 25 ppm,2
same,% efficacy tot.,[1]; [2],39%
same,mortality %,[1]; [2],0%
same,mortality n (died/employed),[1]; [2],0/3
same,oocyst in % of inf. control tot.,[1]; [2],34%
same,weight % of not inf. control,[1]; [2],52%
same,dropping scores,[1]; [3],6
same,lesion score,[1]; [3],6
same,% efficay tot.,[1]; 5 ppm,11%
same,dropping scores,[1]; 5 ppm,6
same,lesion score,[1]; 5 ppm,6
same,mortality %,[1]; 5 ppm,33%
same,mortality n,[1]; 5 ppm,1/3
same,oocyst in % of inf. control tot.,[1]; 5 ppm,47 % of inf. control
same,weight % of not inf. control,[1]; 5 ppm,42 % of not inf. control
same,% efficacy tot.,[1]; 5 ppm in feed,0%
same,mortality %,[1]; 5 ppm in feed,66%
same,mortality n (died/employed),[1]; 5 ppm in feed,2/3
same,oocyst in % of inf. control tot.,[1]; 5 ppm in feed,>100%
same,weight % of not inf. control,[1]; 5 ppm in feed,17%
same,dropping scores,"[1]; 5 ppm in feed, grade 0 to 6",6
same,lesion score,"[1]; 5 ppm in feed, grade 0 to 6",6
same,% efficay tot.,[1]; 7.5 ppm,7%
same,dropping scores,[1]; 7.5 ppm,6
same,lesion score,[1]; 7.5 ppm,6
same,mortality %,[1]; 7.5 ppm,0%
same,mortality n,[1]; 7.5 ppm,0/3
same,oocyst in % of inf. control tot.,[1]; 7.5 ppm,75 % of inf. control
same,weight % of not inf. control,[1]; 7.5 ppm,58 % of not inf. control
same,% efficay tot.,[1]; 10 ppm,22%
same,dropping scores,[1]; 10 ppm,6
same,lesion score,[1]; 10 ppm,6
same,mortality %,[1]; 10 ppm,33%
same,mortality n,[1]; 10 ppm,1/3
same,oocyst in % of inf. control tot.,[1]; 10 ppm,72 % of inf. control
same,weight % of not inf. control,[1]; 10 ppm,41 % of not inf. control
same,% efficacy tot.,[1]; 25 ppm in feed,79%
same,mortality %,[1]; 25 ppm in feed,0%
same,mortality n (died/employed),[1]; 25 ppm in feed,0/3
same,oocyst in % of inf. control tot.,[1]; 25 ppm in feed,0%
same,weight % of not inf. control,[1]; 25 ppm in feed,67%
same,dropping scores,"[1]; 25 ppm in feed, grade 0 to 6",2
same,lesion score,"[1]; 25 ppm in feed, grade 0 to 6",0
same,oocyst in % of inf. control ten.,Eimeria tenella; [2],27%
same,oocyst in % of inf. control ten.,Eimeria tenella; 5 ppm,91 % of inf. control
same,oocyst in % of inf. control ten.,Eimeria tenella; 5 ppm in feed,>100%
same,oocyst in % of inf. control ten.,Eimeria tenella; 7.5 ppm,>100 % of inf. control
same,oocyst in % of inf. control ten.,Eimeria tenella; 10 ppm,44 % of inf. control
same,oocyst in % of inf. control ten.,Eimeria tenella; 25 ppm in feed,0%
same,Efficacy against Eimeria tenella (grade),Eimeria tenella; Dose 5 ppm,0
same,Efficacy against Eimeria tenella (grade),Eimeria tenella; Dose 10 ppm,1
same,Efficacy against Eimeria tenella (grade),Eimeria tenella; Dose 25 ppm,2
Cc1oc(=O)oc1Cn1c(C(F)(F)F)nc2cc(C(F)(F)F)c(C(F)(F)F)cc21 [Example 13],oocyst in % of inf. control ac.,Eimeria acervulina; 2.5 ppm in feed,55%
same,oocyst in % of inf. control ac.,Eimeria acervulina; [4],33%
same,oocyst in % of inf. control ac.,Eimeria acervulina; 5 ppm in feed,5%
same,oocyst in % of inf. control ac.,Eimeria acervulina; [5],25%
same,oocyst in % of inf. control ac.,Eimeria acervulina; 7.5 ppm in feed,0%
same,oocyst in % of inf. control ac.,Eimeria acervulina; 10 ppm in feed,0%
same,Efficacy against Eimeria acervulina (grade),Eimeria acervulina; Dose 5 ppm,2
same,Efficacy against Eimeria acervulina (grade),Eimeria acervulina; Dose 10 ppm,2
same,Efficacy against Eimeria acervulina (grade),Eimeria acervulina; Dose 25 ppm,D D D
same,oocyst in % of inf. control max.,Eimeria maxima; 2.5 ppm in feed,0%
same,oocyst in % of inf. control max.,Eimeria maxima; [4],55%
same,oocyst in % of inf. control max.,Eimeria maxima; 5 ppm in feed,0%
same,oocyst in % of inf. control max.,Eimeria maxima; [5],36%
same,oocyst in % of inf. control max.,Eimeria maxima; 7.5 ppm in feed,0%
same,oocyst in % of inf. control max.,Eimeria maxima; 10 ppm in feed,0%
same,Efficacy against Eimeria maxima (grade),Eimeria maxima; Dose 5 ppm,1
same,Efficacy against Eimeria maxima (grade),Eimeria maxima; Dose 10 ppm,2
same,Efficacy against Eimeria maxima (grade),Eimeria maxima; Dose 25 ppm,D D D
same,% efficacy tot.,[1]; 2.5 ppm in feed,15%
same,mortality %,[1]; 2.5 ppm in feed,33%
same,mortality n (died/employed),[1]; 2.5 ppm in feed,1/3
same,oocyst in % of inf. control tot.,[1]; 2.5 ppm in feed,41%
same,weight % of not inf. control,[1]; 2.5 ppm in feed,61%
same,dropping scores,"[1]; 2.5 ppm in feed, grade 0 to 6",6
same,lesion score,"[1]; 2.5 ppm in feed, grade 0 to 6",6
same,% efficacy tot.,[1]; [4],16%
same,mortality %,[1]; [4],0%
same,mortality n (died/employed),[1]; [4],0/3
same,oocyst in % of inf. control tot.,[1]; [4],57%
same,% efficacy tot.,[1]; 5 ppm in feed,50%
same,mortality %,[1]; 5 ppm in feed,33%
same,mortality n (died/employed),[1]; 5 ppm in feed,1/3
same,oocyst in % of inf. control tot.,[1]; 5 ppm in feed,4%
same,weight % of not inf. control,[1]; 5 ppm in feed,74%
same,dropping scores,"[1]; 5 ppm in feed, grade 0 to 6",6
same,lesion score,"[1]; 5 ppm in feed, grade 0 to 6",6
same,lesion score,"[1]; 5 ppm in feed, grade 0 to 6, listed as Ex. 13",4.6
same,% efficacy tot.,[1]; [5],32%
same,mortality %,[1]; [5],0%
same,mortality n (died/employed),[1]; [5],0/3
same,oocyst in % of inf. control tot.,[1]; [5],26%
same,% efficacy tot.,[1]; 7.5 ppm in feed,74%
same,mortality %,[1]; 7.5 ppm in feed,0%
same,mortality n (died/employed),[1]; 7.5 ppm in feed,0/3
same,oocyst in % of inf. control tot.,[1]; 7.5 ppm in feed,0%
same,weight % of not inf. control,[1]; 7.5 ppm in feed,81%
same,dropping scores,"[1]; 7.5 ppm in feed, grade 0 to 6",6
same,lesion score,"[1]; 7.5 ppm in feed, grade 0 to 6",5.3
same,% efficacy tot.,[1]; 10 ppm in feed,73%
same,mortality %,[1]; 10 ppm in feed,0%
same,mortality n (died/employed),[1]; 10 ppm in feed,0/3
same,oocyst in % of inf. control tot.,[1]; 10 ppm in feed,0%
same,weight % of not inf. control,[1]; 10 ppm in feed,83%
same,dropping scores,"[1]; 10 ppm in feed, grade 0 to 6",6
same,lesion score,"[1]; 10 ppm in feed, grade 0 to 6",4.3
same,lesion score,"[1]; 10 ppm in feed, grade 0 to 6, listed as Ex. 13",5.3
same,% efficacy tot.,[1]; [6],78%
same,weight % of not inf. control,[1]; [6],76%
same,oocyst in % of inf. control ten.,Eimeria tenella; 2.5 ppm in feed,27%
same,oocyst in % of inf. control ten.,Eimeria tenella; [4],>100%
same,oocyst in % of inf. control ten.,Eimeria tenella; 5 ppm in feed,3%
same,oocyst in % of inf. control ten.,Eimeria tenella; [5],27%
same,oocyst in % of inf. control ten.,Eimeria tenella; 7.5 ppm in feed,0%
same,oocyst in % of inf. control ten.,Eimeria tenella; 10 ppm in feed,0%
same,Efficacy against Eimeria tenella (grade),Eimeria tenella; Dose 5 ppm,1
same,Efficacy against Eimeria tenella (grade),Eimeria tenella; Dose 10 ppm,2
same,Efficacy against Eimeria tenella (grade),Eimeria tenella; Dose 25 ppm,D D D

# Reference: patent US6569881B1, “Substituted benzimidazole, the production thereof and the use thereof as means against parasitic protozoa” (Bayer Aktiengesellschaft, priority 1999, dated 2003)
